According to patent publication US11957759B1, “Rapidly accelerated fibrosarcoma (RAF) degrading compounds and associated methods of use” (Arvinas Operations, Inc., priority 2022, dated 2024):

How the values were obtained:
Type in all cases: cell-based
[1] = target: T1, B-RAF V600E (Homo sapiens, UniProt P15056, V600E); test: Target protein degradation, assay A: T-Rex 293 cells, HA-B-RAF_V600E, 96 well format; details: T-Rex 293 HA-B-RAF_V600E cells, 24 hours, Examples 1-82
T1 construct: expressed in transfected cells; host or cells: T-Rex 293 cells (Invitrogen #R71007)
Description: A. T-Rex 293 Cells (96 well format)
T-Rex 293 cells were purchased from Invitrogen (#R71007), and stably transfected with a pcDNA4/TO_HA-B-RAF_V600E construct, using 400 ug Zeocin for selection. V600e cells are plated in ulbecco's Modified Eagle Medium (DMEM; Gibco #11965118) containing 10% fetal bovine serum (FBS; Gibco #16000044) and 1 ng/mL doxycycline (Selleckchem #4163) at a density of 5,000 cells/well in 50 μl on poly-D-lysine (PDL) coated, black clear bottom 96-well plates (Corning #354640) and incubated for 24 hours at 37° C. with 5% CO2. The following day 50 ul of tested compound was added at 2× concentration in DMEM with a final concentration ranging from 1 μM to 0.1 nM in 0.1% dimethylsulfoxide (DMSO), and incubated for 24 hours at 37° C. with 5% CO2. At the end of the experimental treatment, the media was flicked off and cells washed once with phosphate-buffered saline (PBS)++(PBS with CaCl and MgCl) and gently replacing with 200 μl PBS++ per well. The PBS++ was removed and 50 uL 4% paraformaldehyde (PFA; EMS #15710) in PBS++ was added, and incubate at room temperature for 15 minutes. Cells were washed once with PBS++ and 50 uL 0.1% Triton X-100 (Fisher #BP151-500) in PBS++ was added. Plate was incubate for 5 minutes at room temperature. Cells were was once with PBS++. Cells were blocked with 100 uL Licor blocking buffer (Licor #927-50000) for 1 hour at room temperature. Next, 50 uL of HA antibody (CST #3724) at 1:1000 in Licor blocking buffer was added, and the plate icubate overnight at 4° C. The plates were parafilmed to prevent evaporation. Plate was washed three times with 200 uL PBS++. Fifty microliters of HCS secondary antibody solution [1:1000 Hoechst (Invitrogen #H3570), 1:1000 phalloidin (Invitrogen #A22287) and 1:5000 Alexa fluor (Invitrogen #A11008)] was added and incubated for 1 hour. Plate was wash three times with 200 uL PBS++, and imaged on a high content reader (ImageXpress Micro XLS, Molecular Devices).
(§1) The concentration of an exemplary compound that leads to half maximal degradation (DC50) as well as the maximum degradation observed (Dmax, conventionally expressed as a percentage of control) is shown below in Table 2.

[2] = target: T2, B-RAF G466V (Homo sapiens, UniProt P15056, G466V); test: Target protein degradation, assay B: T-Rex 293 cells, HA-B-RAF_G466V, 96 well format; details: T-Rex 293 HA-B-RAF_G466V cells, 24 hours, Examples 1-82
T2 construct: expressed in transfected cells; host or cells: T-Rex 293 cells (Invitrogen #R71007)
Description: B. T-Rex 293 Cells (96 Well Format)
T-Rex 293 cells were purchased from Invitrogen (#R71007), and stably transfected with a pcDNA4/TO_HA-B-RAF_G466V construct, using 400 ug Zeocin for selection. G466V cells are plated in ulbecco's Modified Eagle Medium (DMEM; Gibco #11965118) containing 10% fetal bovine serum (FBS; Gibco #16000044) and 0.75 ng/mL doxycycline (Selleckchem #4163) at a density of 5,000 cells/well in 50 μl on poly-D-lysine (PDL) coated, black clear bottom 96-well plates (Corning #354640) and incubated for 24 hours at 37° C. with 5% CO2. The following day 50 ul of tested compound was added at 2× concentration in DMEM with a final concentration ranging from 30 nM to 3 pM in 0.1% dimethylsulfoxide (DMSO), and incubated for 24 hours at 37° C. with 5% CO2. At the end of the experimental treatment, the media was flicked off and cells washed once with phosphate-buffered saline (PBS)++(PBS with CaCl and MgCl) and gently replacing with 200 μl PBS++ per well. The PBS++ was removed and 50 uL 4% paraformaldehyde (PFA; EMS #15710) in PBS++ was added, and incubate at room temperature for 15 minutes. Cells were washed once with PBS++ and 50 uL 0.1% Triton X-100 (Fisher #BP151-500) in PBS++ was added. Plate was incubate for 5 minutes at room temperature. Cells were was once with PBS++. Cells were blocked with 100 uL Licor blocking buffer (Licor #927-50000) for 1 hour at room temperature. Next, 50 uL of HA antibody (CST #3724) at 1:1000 in Licor blocking buffer was added, and the plate icubate overnight at 4° C. The plates were parafilmed to prevent evaporation. Plate was washed three times with 200 uL PBS++. Fifty microliters of HCS secondary antibody solution [1:1000 Hoechst (Invitrogen #H3570), 1:1000 phalloidin (Invitrogen #A22287) and 1:5000 Alexa fluor (Invitrogen #A11008)] was added and incubated for 1 hour. Plate was wash three times with 200 uL PBS++, and imaged on a high content reader (ImageXpress Micro XLS, Molecular Devices).
as §1

[3] = target: T1, B-RAF V600E; test: Target protein degradation, assay C: T-Rex 293 cells, HA-BRAF_V600E, 384 well format; details: T-Rex 293 HA-BRAF_V600E cells, 24 hours, Examples 83-269; for DC50: Assay C; for Dmax: T-REx-293, Assay C
Outline: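 After 24 h exposure to an 11-point 1:3 series (300 nM–5 pM, 0.5% DMSO), fixed T-Rex 293 cells carrying HA-BRAF V600E (induced with 1 ng/mL doxycycline) were stained anti-HA and imaged. DC50 and Dmax were derived from BRAF intensity relative to control, and cytotoxicity from nuclear counts.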

[4] = target: T2, B-RAF G466V; test: Target protein degradation, assay D: T-Rex 293 cells, HA-BRAF_G466V, 384 well format; details: T-Rex 293 HA-BRAF_G466V cells, 24 hours, Examples 83-269; for DC50: Assay D; for Dmax: T-REx-293, Assay D
Outline: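 Degradation measured by high-content imaging of anti-HA immunofluorescence in fixed T-Rex 293 cells carrying inducible HA-BRAF G466V (1 ng/mL doxycycline), after 24 h PROTAC exposure at 37 °C over 300 nM–5 pM (1:3, 11 points, 0.5% DMSO). Outputs DC50 and Dmax as % of control; nuclei counts against DMSO wells gauge toxicity.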

T2 sequence (P15056 whole entry G466V): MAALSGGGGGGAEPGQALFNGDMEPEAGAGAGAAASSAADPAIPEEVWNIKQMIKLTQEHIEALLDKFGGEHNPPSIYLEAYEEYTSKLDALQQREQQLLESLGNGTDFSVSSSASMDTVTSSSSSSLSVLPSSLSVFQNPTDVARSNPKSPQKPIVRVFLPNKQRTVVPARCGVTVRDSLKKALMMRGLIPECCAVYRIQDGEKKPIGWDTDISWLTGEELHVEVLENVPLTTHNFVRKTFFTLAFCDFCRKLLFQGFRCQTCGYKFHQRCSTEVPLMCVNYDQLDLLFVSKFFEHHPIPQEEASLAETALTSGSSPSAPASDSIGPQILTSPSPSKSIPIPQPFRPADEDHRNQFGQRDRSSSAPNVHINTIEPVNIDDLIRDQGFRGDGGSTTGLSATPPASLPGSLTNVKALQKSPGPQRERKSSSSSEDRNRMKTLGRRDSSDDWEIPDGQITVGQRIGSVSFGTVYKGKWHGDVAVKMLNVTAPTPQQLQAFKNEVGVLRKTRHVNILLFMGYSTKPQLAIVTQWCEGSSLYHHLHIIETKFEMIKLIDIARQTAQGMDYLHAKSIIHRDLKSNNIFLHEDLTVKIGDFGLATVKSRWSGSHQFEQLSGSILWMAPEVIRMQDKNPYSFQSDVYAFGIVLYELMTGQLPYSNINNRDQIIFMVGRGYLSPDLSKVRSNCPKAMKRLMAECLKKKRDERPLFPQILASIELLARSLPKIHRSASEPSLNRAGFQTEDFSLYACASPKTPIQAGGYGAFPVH
T1 sequence (P15056 whole entry V600E): as the sequence (P15056 whole entry G466V) above, with V466G, V600E counted along it

Row | Compound | DC50 [1] [nM] | Dmax [1] [%] | DC50 [2] [nM] | Dmax [2] [%] | DC50 [3] [nM] | Dmax [3] [%] | DC50 [4] [nM] | Dmax [4] [%]
1 | N#Cc1c(NS(=O)(=O)N2CC[C@@H](F)C2)ccc(F)c1Oc1ccc2ncn(C3CCN(CCN4CCN(c5ccc6c(c5)CN(C5CCC(=O)NC5=O)C6=O)CC4)CC3)c(=O)c2c1 (stereo partly drawn) [Example 7, (3R)-N-[2-cyano-3-({3-[1-(2-{4-[2-(2,6-dioxopiperidin-3-yl)-1-oxo-2,3-dihydro-1H-isoindol-5-yl]piperazin-1-yl}ethyl)piperidin-4-yl]-4-oxo-3,4-dihydroquinazolin-6-yl}oxy)-4-fluorophenyl]-3-fluoropyrrolidine-1-sulfonamide] | > 500 | 35 to 70 | 10 to 30 | 35 to 70 |  |  |  | 
2 | N#Cc1c(NS(=O)(=O)N2CC[C@@H](F)C2)ccc(F)c1Oc1ccc2ncn(-c3ccc(N4CCC(c5ccc6c(c5)C(=O)N(C5CCC(=O)NC5=O)C6)CC4)cc3)c(=O)c2c1 (stereo partly drawn) [Example 32, (3R)-N-(2-cyano-3-{[3-(4-{4-[2-(2,6-dioxopiperidin-3-yl)-3-oxo-2,3-dihydro-1H-isoindol-5-yl]piperidin-1-yl}phenyl)-4-oxo-3,4-dihydroquinazolin-6-yl]oxy}-4-fluorophenyl)-3-fluoropyrrolidine-1-sulfonamide] | 50 to 500 | 35 to 70 | > 30 |  |  |  |  | 
3 | Cn1c(=O)n(C2CCC(=O)NC2=O)c2ccc(N3CCC(CN4CCN(c5ccc(-n6cnc7ccc(Oc8c(F)ccc(NS(=O)(=O)N9CC[C@@H](F)C9)c8C#N)cc7c6=O)cc5)CC4)CC3)cc21 (stereo partly drawn) [Example 78, (3R)—N-{2-cyano-3-[(3-{4-[4-({1-[1-(2,6-dioxopiperidin-3-yl)-3-methyl-2-oxo-2,3-dihydro-1H-1,3-benzodiazol-5-yl]piperidin-4-yl}methyl)piperazin-1-yl]phenyl}-4-oxo-3,4-dihydroquinazolin-6-yl)oxy]-4-fluorophenyl}-3-fluoropyrrolidine-1-sulfonamide] | 5 to 50 | 35 to 70 | 1 to 10 | 35 to 70 |  |  |  | 
4 | N#Cc1c(NS(=O)(=O)N2CC[C@@H](F)C2)ccc(F)c1Oc1ccc2ncn(-c3ccc(N4CCC(CN5CCC(c6ccc7c(c6)CN([C@H]6CCC(=O)NC6=O)C7=O)CC5)CC4)cc3)c(=O)c2c1 [Example 81, (3R)—N-(2-cyano-3-{[3-(4-{4-[(4-{2-[(3S)-2,6-dioxopiperidin-3-yl]-1-oxo-2,3-dihydro-1H-isoindol-5-yl}piperidin-1-yl)methyl]piperidin-1-yl}phenyl)-4-oxo-3,4-dihydroquinazolin-6-yl]oxy}-4-fluorophenyl)-3-fluoropyrrolidine-1-sulfonamide] | 50 to 500 | 35 to 70 |  |  |  |  |  | 
5 | N#Cc1c(NS(=O)(=O)N2CC[C@@H](F)C2)ccc(F)c1Oc1ccc2ncn(-c3ccc(N4CC(CC5CN(c6ccc7c(c6)C(=O)N(C6CCC(=O)NC6=O)C7=O)C5)C4)nc3)c(=O)c2c1 (stereo partly drawn) [Example 159, (3R)-N-{2-cyano-3-[(3-{6-[3-({1-[2-(2,6-dioxopiperidin-3-yl)-1,3-dioxo-2,3-dihydro-1H-isoindol-5-yl]azetidin-3-yl}methyl)azetidin-1-yl]pyridin-3-yl}-4-oxo-3,4-dihydroquinazolin-6-yl)oxy]-4-fluorophenyl}-3-fluoropyrrolidine-1-sulfonamide] |  |  |  |  | 50 to 500 | 35 to 70 | 1 to 10 | ≤ 35
6 | N#Cc1c(NS(=O)(=O)N2CC[C@@H](F)C2)ccc(F)c1Oc1ccc2ncn(-c3ccc(N4CCN(c5ccc6c(c5)CN(C5CCC(=O)NC5=O)C6=O)CC4)nc3)c(=O)c2c1 (some centres unmarked) [Example 143] |  |  |  |  | ≤ 5 | 35 to 70 | > 30 | 
7 | N#Cc1c(NS(=O)(=O)N2CC[C@@H](F)C2)ccc(F)c1Oc1ccc2ncn(-c3ccc(N4CC(CN5CC(c6ccc7c(c6)CN([C@@H]6CCC(=O)NC6=O)C7=O)C5)C4)cc3)c(=O)c2c1 [Example 205, (3R)-N-(2-cyano-3-{[3-(4-{3-[(3-{2-[(3R)-2,6-dioxopiperidin-3-yl]-1-oxo-2,3-dihydro-1H-isoindol-5-yl}azetidin-1-yl)methyl]azetidin-1-yl}phenyl)-4-oxo-3,4-dihydroquinazolin-6-yl]oxy}-4-fluorophenyl)-3-fluoropyrrolidine-1-sulfonamide] |  |  |  |  | 50 to 500 | ≤ 35 | 1 to 10 | ≤ 35
8 | N#Cc1c(NS(=O)(=O)N2CC[C@@H](F)C2)ccc(F)c1Oc1ccc2ncn(-c3ccc(N4CCC5(CC4)CN(c4cccc6c4CN(C4CCC(=O)NC4=O)C6=O)C5)nc3)c(=O)c2c1 (stereo partly drawn) [Example 165, (3R)-N-(2-cyano-3-{[3-(6-{2-[2-(2,6-dioxopiperidin-3-yl)-1-oxo-2,3-dihydro-1H-isoindol-4-yl]-2,7-diazaspiro[3.5]nonan-7-yl}pyridin-3-yl)-4-oxo-3,4-dihydroquinazolin-6-yl]oxy}-4-fluorophenyl)-3-fluoropyrrolidine-1-sulfonamide] |  |  |  |  | ≤ 5 | ≤ 35 | > 30 | ≤ 35
9 | N#Cc1c(NS(=O)(=O)N2CC[C@@H](F)C2)ccc(F)c1Oc1ccc2ncn(-c3ccc(N4CCN(c5cc(N6CCN(c7ccc8c(c7)C(=O)N(C7CCC(=O)NC7=O)C8=O)CC6)ncn5)CC4)nc3)c(=O)c2c1 (stereo partly drawn) [Example 168, (3R)-N-{2-cyano-3-[(3-(6-[4-(6-{4-[2-(2,6-dioxopiperidin-3-yl)-1,3-dioxo-2,3-dihydro-1H-isoindol-5-yl]piperazin-1-yl}pyrimidin-4-yl)piperazin-1-yl]pyridin-3-yl}-4-oxo-3,4-dihydroquinazolin-6-yl)oxy]-4-fluorophenyl}-3-fluoropyrrolidine-1-sulfonamide] |  |  |  |  | 50 to 500 | ≤ 35 | 10 to 30 | 35 to 70
